Drawing on US11932658B2 (BRISTOL-MYERS SQUIBB COMPANY, priority 2016, dated 2024), this text covers IC50 for eleven compounds.

Each structure is given as a SMILES string.

The test addresses T1, PAR4 (Homo sapiens, UniProt Q96RI0).
T1 construct: expressed in transfected cells; host or cells: HEK293 PAR4 Clone 1.2A (BMS Arctic ID 383940)
T1 sequence (Q96RI0 18-385): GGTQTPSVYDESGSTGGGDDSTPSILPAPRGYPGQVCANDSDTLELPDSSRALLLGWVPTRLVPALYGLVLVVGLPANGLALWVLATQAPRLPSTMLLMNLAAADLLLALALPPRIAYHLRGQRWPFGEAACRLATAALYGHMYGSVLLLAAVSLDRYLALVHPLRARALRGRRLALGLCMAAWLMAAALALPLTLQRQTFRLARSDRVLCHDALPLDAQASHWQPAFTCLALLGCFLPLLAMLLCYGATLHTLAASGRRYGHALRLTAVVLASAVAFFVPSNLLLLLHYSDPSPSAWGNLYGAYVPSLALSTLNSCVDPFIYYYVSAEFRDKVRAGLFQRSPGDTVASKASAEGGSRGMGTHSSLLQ
Description: PAR4 FLIPR assay (antagonism of agonist peptide-induced calcium mobilization). It counts as cell-based. An outline of the steps:
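Antagonism was taken as block of calcium mobilization evoked by the agonist peptide H-Ala-Phe(4-F)-Pro-Gly-Trp-Leu-Val-Lys-Asn-[…]-NH2, added after 30 min room-temperature compound preincubation in dye-loaded PAR4-transfected HEK293 cells (endogenous PAR1). Fluorescence was read on FDSS, with compound addition alone used as the agonist counter-screen; values come from 11-point concentration-response curves.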
On the technique in general: A change in cytosolic calcium serves as a functional read-out for many receptors and channels.
As a reminder, the IC50 is the concentration that inhibits the measured activity by half. Take `COc1cnc2c(-c3nc4cc(F)c5c(c4s3)C[C@H](CNC(=O)Oc3ccccc3)O5)cc(C)cc2n1` [Example 220, (R)-phenyl ((5-fluoro-2-(2-methoxy-7-methylquinoxalin-5-yl)-7,8-dihydrobenzofuro[5,4-d]thiazol-7-yl)methyl)carbamate]: the IC50 is 0.038 µM. As to `COc1cnc2c(-c3nc4c(C)cc5c(c4s3)OCC(COC(=O)Nc3ccc(N4CCCC4)nc3)O5)cc(C)cc2n1` (centres unmarked) [Example 137, (2-(2-methoxy-7-methylquinoxalin-5-yl)-4-methyl-7,8-dihydro-[1,4]dioxino[2′,3′:3,4]benzo[1,2-d]thiazol-7-yl)methyl (6-(pyrrolidin-1-yl)pyridin-3-yl)carbamate], the IC50 is 0.0061 µM.

Turning to `COc1cnc2c(-c3nc4ccc5c(c4s3)OC[C@H](COC(=O)Nc3cnc(OC[C@@H](C)O)nc3)O5)cc(Cl)cc2c1` [Example 289, ((R)-2-(6-chloro-3-methoxyquinolin-8-yl)-7,8-dihydro-[1,4]dioxino[2′,3′:3,4]benzo[1,2-d]thiazol-7-yl)methyl (2-((R)-2-hydroxypropoxy)pyrimidin-5-yl)carbamate], the IC50 is 0.0018 µM.

Consider `COc1cnc2c(-c3nc4c(C(O)C(C)(C)C)cc5c(c4s3)OCCCO5)cc(C)cc2n1` (centres unmarked) [Example 264, 1-(2-(2-methoxy-7-methylquinoxalin-5-yl)-8,9-dihydro-7H-[1,4]dioxepino[2′,3′:3,4]benzo[1,2-d]thiazol-4-yl)-2,2-dimethylpropan-1-ol], for which the IC50 amounted to 0.015 µM. Take `COC(=O)NC[C@]1(C)Cc2c(c(F)cc3nc(-c4cc(C)cc5nc(OC)cnc45)sc23)O1` [Example 240, (S)-methyl ((5-fluoro-2-(2-methoxy-7-methylquinoxalin-5-yl)-7-methyl-7,8-dihydrobenzofuro[5,4-d]thiazol-7-yl)methyl)carbamate]: the concentration for half-maximal inhibition (IC50) amounted to 0.032 µM. In the case of `COc1cnc2c(-c3nc4c(C)cc5c(c4s3)OCC(COC(=O)Nc3cncc(-c4ccccc4)c3)O5)cc(C)cc2n1` (centres unmarked) [Example 126, (2-(2-methoxy-7-methylquinoxalin-5-yl)-4-methyl-7,8-dihydro-[1,4]dioxino[2′,3′:3,4]benzo[1,2-d]thiazol-7-yl)methyl (5-phenylpyridin-3-yl)carbamate], the 50% inhibitory concentration (IC50) is 0.067 µM. As for `COc1ccc(NC(=O)OC[C@H]2COc3c(cc(C(F)F)c4nc(-c5cc(C)cc6nc(OC)cnc56)sc34)O2)cn1` [Example 81, (R)-(4-(difluoromethyl)-2-(2-methoxy-7-methylquinoxalin-5-yl)-7,8-dihydro-[1,4]dioxino[2′,3′:3,4]benzo[1,2-d]thiazol-7-yl)methyl (6-methoxypyridin-3-yl)carbamate], the IC50 stood at 0.039 µM. `COc1cnc2c(-c3nc4ccc5c(c4s3)OC[C@H](COC(=O)Nc3cncc(C#N)c3)O5)cc(C)cc2n1` [Example 113, (R)-(2-(2-methoxy-7-methylquinoxalin-5-yl)-7,8-dihydro-[1,4]dioxino[2′,3′:3,4]benzo[1,2-d]thiazol-7-yl)methyl (5-cyanopyridin-3-yl)carbamate]: the IC50 was 0.0019 µM. For `COc1cnc2c(-c3nc4c(F)cc5c(c4s3)OC[C@H](COC(=O)Nc3ccnc(C)c3)O5)cc(CO)cc2n1` [Example 85, (R)-(4-fluoro-2-(7-(hydroxymethyl)-2-methoxyquinoxalin-5-yl)-7,8-dihydro-[1,4]dioxino [2′,3′:3,4]benzo[1,2-d]thiazol-7-yl)methyl (2-methylpyridin-4-yl)carbamate], the IC50 was determined as 0.015 µM. As for `COc1cnc2c(-c3nc4c(C)cc5c(c4s3)OCC(COC(=O)Nc3ccc(-c4ccccc4)nc3)O5)cc(C)cc2n1` (centres unmarked) [Example 125, (2-(2-methoxy-7-methylquinoxalin-5-yl)-4-methyl-7,8-dihydro-[1,4]dioxino[2′,3′:3,4]benzo[1,2-d]thiazol-7-yl)methyl (6-phenylpyridin-3-yl)carbamate], the IC50 turned out to be 0.035 µM.

As for `COc1cnc2c(-c3nc4ccc5c(c4s3)C[C@@H]([C@@H](C)O)O5)cc(C)cc2n1` (single isomer, unassigned) [Example 243], the IC50 is 0.0097 µM.
